Source: PubChem BioAssay (NCI)
“And” between values parts separate entries of the source, which are not always exact repeats. Identical values can stand only once.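 Where inhibition never reached the appropriate level, the endpoint shown equals the highest concentration tested. Otherwise, values were interpolated linearly from a five-concentration, 48-hour dose response in 96-well plates. GI50 marks 50% less growth. TGI denotes the concentration required for complete inhibition of growth.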

Assays:
Experiment in all cases: NCI tumour cell line growth inhibition, 48 h
MDA-N = tested on: MDA-N
DMS 114 small cell lung = tested on: DMS 114 small cell lung
HOP-18 NSCLC = tested on: HOP-18 NSCLC
LXFL 529 NSCLC = tested on: LXFL 529 NSCLC
XF 498 CNS = tested on: XF 498 CNS
KM20L2 colon = tested on: KM20L2 colon
M19-MEL melanoma = tested on: M19-MEL melanoma
P388 leukemia = tested on: P388 leukemia
P388/ADR leukemia = tested on: P388/ADR leukemia
SN12K1 renal = tested on: SN12K1 renal
SNB-78 CNS = tested on: SNB-78 CNS
RXF-631 renal = tested on: RXF-631 renal

Row | Structure (SMILES) | TGI (MDA-N) [µM] | TGI (DMS 114 small cell lung) [µM] | TGI (HOP-18 NSCLC) | TGI (LXFL 529 NSCLC) [µM] | TGI (XF 498 CNS) | TGI (KM20L2 colon) | TGI (M19-MEL melanoma) [µM] | TGI (SNB-78 CNS) [µM] | other results
1 | CCNc1ccc2c(c1)C(=O)N(OS(C)(=O)=O)C2=O | > 100 |  |  |  |  |  |  |  | 
2 | C[C@@H]1CC2(C[C@@H](C)C3[C@@H](CC4(C)CCCC5C6=CC(O)(CC[C@]34C)OC6=CC(=O)OC5(C)C)O2)OC1=O (stereo partly drawn) |  | > 100 | > 100 µM | > 100 | > 100 µM |  |  |  | 
3 | Cc1c(-c2ccc(-c3ccccc3F)cc2)nc2ccc(F)cc2c1C(=O)O |  |  | 192 µM and 182 µM |  | 164 µM and 230 µM | 170 µM and 171 µM | 153 |  | GI50 (HOP-18 NSCLC): 57 µM; GI50 (KM20L2 colon): 1.12 µM; GI50 (MDA-N): 0.979 µM and 0.762 µM; GI50 (P388 leukemia): 0.5 µM; TGI (P388 leukemia): 89.8 µM and 106 µM; GI50 (P388/ADR leukemia): 0.5 µM; TGI (P388/ADR leukemia): 60 µM and 125 µM; TGI (SN12K1 renal): 70.9 µM; GI50 (XF 498 CNS): 106 µM
4 | Cc1cc(C)nc(NC(=O)COc2ccc(Cl)cc2)c1 | > 100 |  |  |  |  |  |  |  | 
5 | COc1cccc(C=NC23CC4CC(CC(C4)C2)C3)c1 |  |  |  |  |  | > 100 µM | > 100 | > 100 | 
6 | Cc1cc(O)c2c(c1)OC1(C)CCC3C(C)(C)CCCC34COC2C14 (stereo not drawn) |  | 27.1 |  | 28.2 |  | 33.3 µM |  |  | 
7 | CNC(=O)NCCCCC(NC(C)=O)C(=O)NCc1ccccc1 (stereo not drawn) |  | > 100 |  | > 100 | > 100 µM | > 100 µM | > 100 | > 100 | TGI (RXF-631 renal): > 100 µM
8 | CCOC(=O)C(Cc1cc(OC)c(CC(C(=O)OCC)C(=O)OCC)cc1OC)C(=O)OCC | > 100 | > 100 |  | > 100 | 53.7 µM | > 100 µM | > 100 | > 100 | 
9 | C=C(c1ccccc1)c1cc2c(=O)[nH]ccc2n1C |  | 50.1 |  | > 100 | 91 µM | 59.7 µM | > 100 | > 100 | 
10 | O=C(C#Cc1ccccc1)NC/C=C/c1ccccc1 |  | > 100 | > 100 µM | > 100 |  | > 100 µM | > 100 | 84.1 | 
11 | O=C(O)C1CC2C=CCC(C2)C1 (stereo not drawn) |  | > 100 | > 100 µM | > 100 | > 100 µM | > 100 µM | > 100 | > 100 | 
12 | CC(NC1CCCC[C@@H]1O)c1ccccc1 (stereo partly drawn) |  |  | > 100 µM | > 100 | > 100 µM | > 100 µM | > 100 | > 100 | 
13 | O=C1N=C2N=C(c3ccc(Cl)cc3)N(c3ccc(Cl)cc3)N2Sc2ccccc21 |  | > 100 | > 100 µM | > 100 | 99.4 µM | > 100 µM | > 100 | > 100 | 
14 | CC(C)C(Br)C(=O)NCC(=O)O (stereo not drawn) | > 100 |  |  |  |  |  |  |  | 
15 | COc1c2c(c(O)c3c4c(c(C)cc13)C1OC3(C(OC)OC5CC(C)(O)C(OC6CC(C)(O)C(O)C(C)O6)C(C)O5)OC1C(OC)(O4)C31CO1)C(=O)C(O)CC2OC1CC(C)(O)C(OC(C)=O)C(C)O1 (stereo not drawn) |  | < 0.01 |  | 0.0889 | < 0.01 µM |  | < 0.01 | < 0.0448 | TGI (RXF-631 renal): 4.48 µM
16 | C/C(=C\c1ccccc1)C(=O)c1c(C)cc(C)cc1C |  | > 100 | > 100 µM | > 100 | > 100 µM | > 100 µM | > 100 |  | 
17 | c1ccc(N2CCN(CCN3CCc4c([nH]c5ccccc45)C3c3cccnc3)CC2)cc1 (stereo not drawn) |  | > 100 | > 100 µM | > 100 | > 100 µM | > 100 µM | > 100 | > 100 | TGI (RXF-631 renal): > 100 µM
18 | O=C(NCCCN1CCN(CCCNC(=O)Nc2cc(Cl)ccc2Cl)CC1)Nc1cc(Cl)ccc1Cl |  | > 100 | > 100 µM | > 100 | > 100 µM | > 100 µM |  | > 100 | 
19 | CC(=O)/C(=N\N=C(N)N)c1ccccc1 | > 100 |  |  |  |  |  |  |  | 
20 | O=C(O)CCN1C(=S)CSC1=S | > 100 |  |  |  |  |  |  |  | 

Row | Structure (SMILES) | TGI (MDA-N) [µM] | TGI (DMS 114 small cell lung) [µM] | TGI (HOP-18 NSCLC) | TGI (LXFL 529 NSCLC) [µM] | TGI (XF 498 CNS) | TGI (KM20L2 colon) | TGI (M19-MEL melanoma) [µM] | TGI (SNB-78 CNS) [µM] | other results
21 | COC(=O)C1=C(O)c2cc(OC)c(OC)c(OC)c2C(c2ccc3c(c2)OCO3)[C@@H]1C(=O)OC (stereo partly drawn) |  | 5.96 | > 100 µM | > 100 |  | 6.43 µM |  | > 100 | TGI (RXF-631 renal): > 100 µM
22 | COc1ccc(OCC(=O)O)c2c1CCC(C)C2=O (stereo not drawn) |  | > 100 | > 100 µM |  | > 100 µM | > 100 µM | > 100 | > 100 | TGI (RXF-631 renal): > 100 µM
23 | O=C(CC1(O)CCCCC1)OC1CCCC1 | > 100 |  |  |  |  |  |  |  | 
24 | Cc1nc(Nc2ccc(Cl)cc2)sc1C(=O)Nc1cccc2c(=O)[nH][nH]c(=O)c12 |  | 61.9 |  | 86.6 |  | 41.2 µM | 84.4 | > 100 | 
25 | Nc1ccc(C(=O)N/C(=C\c2ccc3c(c2)OCO3)c2nc3ccccc3s2)cc1 |  |  |  | 22.4 | 25.5 µM | 28.7 µM | 32.6 | 30.5 | TGI (RXF-631 renal): 35.1 µM
26 | COC(OC)c1cccnc1C |  | > 100 | > 100 µM | > 100 | > 100 µM | > 100 µM | > 100 | > 100 | TGI (RXF-631 renal): > 100 µM
27 | Nc1ccccc1SC(/C=C/NNC1=NC(c2ccccc2)C(c2ccccc2)=NN1)c1ccccc1 (stereo not drawn) |  | 30.1 |  |  |  | 44.9 µM | 25 | 44.3 | 
28 | BrCc1ccc2ccc3ccc(CBr)nc3c2n1 | 12.7 | 15.4 | 5.48 µM | 3.19 |  | 29.3 µM | 14.1 | 4.43 | 
29 | CN1C2C=CC(=O)C1C(C#N)C2 (stereo not drawn) | > 100 |  |  |  |  |  |  |  | 
30 | COC(=O)CCC(NC(=S)N/N=C(\C)c1cccs1)C(=O)OC (stereo not drawn) |  | > 100 | > 100 µM | > 100 | > 100 µM | > 100 µM | > 100 | > 100 | 
31 | O=C1C=C(NCCc2ccccc2)c2ccccc2C1=O | 3.39 | 5.81 | 3 µM | 19.1 |  | 18.7 µM | 0.927 | 42.8 | 
32 | C=C1C(=O)O[C@@H]2C[C@@H](C)[C@@H]3C=CC(=O)[C@@]3(C)[C@@H](OC(=O)CCCC(=O)O[C@H]3[C@@H]4C(=C)C(=O)O[C@@H]4C[C@@H](C)[C@@H]4C=CC(=O)[C@]43C)[C@H]12 | 0.0431 |  |  |  |  |  |  |  | 
33 | CCOC(=O)NN1C(=O)C(=P(c2ccccc2)(c2ccccc2)c2ccccc2)C(C(=O)OC)=C1C |  | > 100 | > 100 µM | > 100 | > 100 µM | > 100 µM | > 100 | > 100 | 
34 | Cc1cccc(C=NC23CC4CC(CC(C4)C2)C3)c1 |  | > 100 | > 100 µM |  | > 100 µM | > 100 µM | > 100 | > 100 | 
35 | C/C(=N/NC(N)=S)C(CN1CCOCC1)C(C1=C(O)c2ccccc2OC1)c1ccccc1 (stereo not drawn) |  |  | > 100 µM | > 100 | > 100 µM | > 100 µM | > 100 | > 100 | 
36 | CCCC(=O)Nc1cc(/C=C/C(=O)N2C[C@@H]3C[C@]34C2=CC(=O)c2[nH]cc(C)c24)n(C)c1 | 0.879 |  |  |  |  |  |  |  | 
37 | OC(Cc1cccc2ccccc12)CN1CCC(c2ccccc2)CC1 (stereo not drawn) | 27.3 |  |  |  |  |  |  |  | 
38 | CCNC(=O)COc1ccc(Cl)c(C)c1 |  | > 100 | > 100 µM | > 100 |  | > 100 µM | > 100 | > 100 | 
39 | O=C1C(=O)N(c2cc(Cl)ccc2Cl)C(=O)C(=O)C1c1nc2ccccc2s1 |  | > 100 |  | > 100 | > 100 µM | > 100 µM | > 100 | > 100 | 
40 | CN(C)C(=S)/N=c1\ssc(=Nc2ccccc2)n1-c1ccccc1 |  | 29.8 | > 100 µM |  |  |  | > 100 | 79.7 | TGI (RXF-631 renal): > 100 µM
